Literature values in US20260151341A1, “NOVEL AMORPHOUS ACTIVE PHARMACEUTICAL INGREDIENTS” (DISRUPTIVE PHARMA AB, priority 2020, published 2026).

Details: mesoporous silica, study referred to by Gupte et al.

CCC(C)n1ncn(-c2ccc(N3CCN(c4ccc(OCC5COC(Cn6cncn6)(c6ccc(Cl)cc6Cl)O5)cc4)CC3)cc2)c1=O (stereo not shown) [Itraconazole, itraconazole]
loading at which stabilized by silica: more than 32 % by weight
